Test results as given in patent US9694016B2 (Novartis AG, priority 2013, dated 2017).

Target: b-Raf (V600E) (Homo sapiens (Human), UniProt P15056, V600E)
Conditions: read-out: b-Raf IC-50; AlphaScreen, 60 min pre-incubation, 3 hours reaction

Chain of b-Raf (V600E) (P15056 whole entry V600E): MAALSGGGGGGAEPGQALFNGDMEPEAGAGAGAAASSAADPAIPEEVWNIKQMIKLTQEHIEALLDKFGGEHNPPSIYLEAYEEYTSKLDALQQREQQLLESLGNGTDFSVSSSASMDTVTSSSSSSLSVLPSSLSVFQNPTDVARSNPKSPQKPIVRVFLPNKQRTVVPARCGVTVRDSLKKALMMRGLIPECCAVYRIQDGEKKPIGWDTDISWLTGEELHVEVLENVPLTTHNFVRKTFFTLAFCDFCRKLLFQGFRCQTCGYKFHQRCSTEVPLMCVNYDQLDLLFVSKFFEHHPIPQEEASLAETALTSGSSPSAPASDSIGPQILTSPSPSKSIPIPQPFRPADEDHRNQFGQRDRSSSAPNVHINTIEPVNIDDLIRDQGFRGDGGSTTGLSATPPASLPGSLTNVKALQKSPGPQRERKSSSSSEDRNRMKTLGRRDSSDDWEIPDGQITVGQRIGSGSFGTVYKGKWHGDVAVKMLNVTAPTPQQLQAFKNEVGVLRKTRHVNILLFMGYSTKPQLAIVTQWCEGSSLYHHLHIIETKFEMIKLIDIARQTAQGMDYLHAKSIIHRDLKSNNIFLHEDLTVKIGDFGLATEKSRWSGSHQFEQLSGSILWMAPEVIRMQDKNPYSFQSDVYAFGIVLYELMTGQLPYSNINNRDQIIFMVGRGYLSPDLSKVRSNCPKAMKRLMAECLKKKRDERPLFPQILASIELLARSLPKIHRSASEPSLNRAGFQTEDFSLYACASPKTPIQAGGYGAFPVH

SMILES	IC50 [nM]
CCOc1nnc(-c2cc(NC(=O)c3ccc(CNC)c(C(F)(F)F)c3)cnc2C)cc1N1CCOCC1 [Example 626, N-(5-(6-ethoxy-5-morpholinopyridazin-3-yl)-6-methylpyridin-3-yl)-4-((methylamino)methyl)-3-(trifluoromethyl)benzamide]	14
CCOc1nnc(-c2cc(NC(=O)c3ccc(CO)c(C(F)(F)F)c3)cnc2C)cc1N1CCOCC1 [Example 627, N-(5-(6-ethoxy-5-morpholinopyridazin-3-yl)-6-methylpyridin-3-yl)-4-(hydroxymethyl)-3-(trifluoromethyl)benzamide]	3.7
Cc1ncc(NC(=O)c2cc(C(F)(F)F)ccn2)cc1-c1cc(N2CCOCC2)c(OC2CCOCC2)nn1 [Example 629, N-(6-methyl-5-(5-morpholino-6-((tetrahydro-2H-pyran-4-yl)oxy)pyridazin-3-yl)pyridin-3-yl)-4-(trifluoromethyl)picolinamide]	1.2
Cc1ncc(NC(=O)c2ccnc(C(C)(C)F)c2)cc1-c1cc(N2CCOCC2)c(OC2CCOCC2)nn1 [Example 630, 2-(2-fluoropropan-2-yl)-N-(6-methyl-5-(5-morpholino-6-((tetrahydro-2H-pyran-4-yl)oxy)pyridazin-3-yl)pyridin-3-yl)isonicotinamide]	2.9
Cc1ncc(NC(=O)c2ccnc(S(C)(=O)=O)c2)cc1-c1cc(N2CCOCC2)c(OC2CCOCC2)nn1 [Example 632, N-(6-methyl-5-(5-morpholino-6-((tetrahydro-2H-pyran-4-yl)oxy)pyridazin-3-yl)pyridin-3-yl)-2-(methylsulfonyl)isonicotinamide]	7.5
Cc1ncc(NC(=O)c2cccc(C(F)(F)F)c2)cc1-c1cc(N2CCOCC2)c(OC2CCOCC2)nn1 [Example 636, N-(6-methyl-5-(5-morpholino-6-((tetrahydro-2H-pyran-4-yl)oxy)pyridazin-3-yl)pyridin-3-yl)-3-(trifluoromethyl)benzamide]	1.3
Cc1ccc(NC(=O)c2cccc(-c3nnco3)c2)cc1-c1cc(N2CCOCC2)c(=O)n(C)n1 [Example 639, N-(4-methyl-3-(1-methyl-5-morpholino-6-oxo-1,6-dihydropyridazin-3-yl)phenyl)-3-(1,3,4-oxadiazol-2-yl)benzamide]	7.3
Cc1ccc(NC(=O)c2ccnc(C(C)(C)C#N)c2)cc1-c1cc(N2CCOCC2)c(=O)n(C)n1 [Example 640, 2-(2-cyanopropan-2-yl)-N-(4-methyl-3-(1-methyl-5-morpholino-6-oxo-1,6-dihydropyridazin-3-yl)phenyl)isonicotinamide]	5.4
CCn1cc(C(=O)Nc2ccc(C)c(-c3cc(N4CCOCC4)c(=O)n(C)n3)c2)cc(C(F)(F)F)c1=O [Example 641, 1-ethyl-N-(4-methyl-3-(1-methyl-5-morpholino-6-oxo-1,6-dihydropyridazin-3-yl)phenyl)-6-oxo-5-(trifluoromethyl)-1,6-dihydropyridine-3-carboxamide]	2.7
CCC(F)(F)c1cc(C(=O)Nc2ccc(C)c(-c3cc(N4CCOCC4)c(=O)n(C)n3)c2)ccn1 [Example 643, 2-(1,1-difluoropropyl)-N-(4-methyl-3-(1-methyl-5-morpholino-6-oxo-1,6-dihydropyridazin-3-yl)phenyl)isonicotinamide]	1.3
Cc1ccc(NC(=O)c2cnnc(C3CC3)c2)cc1-c1cc(N2CCOCC2)c(=O)n(C)n1 [Example 644, 6-cyclopropyl-N-(4-methyl-3-(1-methyl-5-morpholino-6-oxo-1,6-dihydropyridazin-3-yl)-phenyl)pyridazine-4-carboxamide]	2.9
Cc1ccc(NC(=O)c2cnnc(C(C)(C)C#N)c2)cc1-c1cc(N2CCOCC2)c(=O)n(C)n1 [Example 646, 6-(2-cyanopropan-2-yl)-N-(4-methyl-3-(1-methyl-5-morpholino-6-oxo-1,6-dihydropyridazin-3-yl)phenyl)pyridazine-4-carboxamide]	8.4
Cc1ccc(NC(=O)c2ccnc(C3COC3)c2)cc1-c1cc(N2CCOCC2)c(=O)n(C)n1 [Example 648, N-(4-methyl-3-(1-methyl-5-morpholino-6-oxo-1,6-dihydropyridazin-3-yl)phenyl)-2-(oxetan-3-yl)isonicotinamide]	4.5
Cc1ccc(NC(=O)c2cccc(C(F)F)c2)cc1-c1cc(N2CCOCC2)c(=O)n(C)n1 [Example 655, 3-(difluoromethyl)-N-(4-methyl-3-(1-methyl-5-morpholino-6-oxo-1,6-dihydropyridazin-3-yl)phenyl)benzamide]	2.2
Cc1ccc(NC(=O)c2ccnc(C(C)(F)F)c2)cc1-c1cc(N2CCOCC2)c(=O)n(C)n1 [Example 657, 2-(1,1-difluoroethyl)-N-(4-methyl-3-(1-methyl-5-morpholino-6-oxo-1,6-dihydropyridazin-3-yl)phenyl)isonicotinamide]	1.1
Cc1ccc(NC(=O)c2ccnc(C(F)(F)F)c2)cc1-c1cc(N2CCOCC2)c(=O)n(C)n1 [Example 658, N-(4-methyl-3-(1-methyl-5-morpholino-6-oxo-1,6-dihydropyridazin-3-yl)phenyl)-2-(trifluoromethyl)isonicotinamide]	3.1
Cc1ccc(NC(=O)c2ccnc(C3(C#N)CC3)c2)cc1-c1cc(N2CCOCC2)c(=O)n(C)n1 [Example 659, 2-(1-cyanocyclopropyl)-N-(4-methyl-3-(1-methyl-5-morpholino-6-oxo-1,6-dihydropyridazin-3-yl)phenyl)isonicotinamide]	0.7
Cc1ccc(NC(=O)c2cc(CN(C)C)cc(C(F)(F)F)c2)cc1-c1cc(N2CCOCC2)c(=O)n(C)n1 [Example 661, 3-((dimethylamino)methyl)-N-(4-methyl-3-(1-methyl-5-morpholino-6-oxo-1,6-dihydropyridazin-3-yl)phenyl)-5-(trifluoromethyl)benzamide]	4.3
Cc1ccc(NC(=O)c2ccnc(C(C)(C)F)c2)cc1-c1cc(N2CCOC[C@@H]2C)c(=O)n(C)n1 [Example 662, (S)-2-(2-fluoropropan-2-yl)-N-(4-methyl-3-(1-methyl-5-(3-methylmorpholino)-6-oxo-1,6-dihydropyridazin-3-yl)phenyl)isonicotinamide]	3.9

More lines, now with the values ahead:

IC50 [nM]	SMILES
1.8	Cc1ncc(NC(=O)c2ccnc(C(C)(F)F)c2)cc1-c1cc(N2CCOCC2)c(OC2CCOCC2)nn1 [Example 628, 2-(1,1-difluoroethyl)-N-(6-methyl-5-(5-morpholino-6-((tetrahydro-2H-pyran-4-yl)oxy)pyridazin-3-yl)pyridin-3-yl)isonicotinamide]
2.7	Cc1ncc(NC(=O)c2cnnc(C(F)(F)F)c2)cc1-c1cc(N2CCOCC2)c(OC2CCOCC2)nn1 [Example 631, N-(6-methyl-5-(5-morpholino-6-((tetrahydro-2H-pyran-4-yl)oxy)pyridazin-3-yl)pyridin-3-yl)-6-(trifluoromethyl)pyridazine-4-carboxamide]
7.2	Cc1ncc(NC(=O)c2ccnc(C(C)(C)C#N)c2)cc1-c1cc(N2CCOCC2)c(OC2CCOCC2)nn1 [Example 633, 2-(2-cyanopropan-2-yl)-N-(6-methyl-5-(5-morpholino-6-((tetrahydro-2H-pyran-4-yl)oxy)pyridazin-3-yl)pyridin-3-yl)isonicotinamide]
17.1	Cc1ncc(NC(=O)c2ccnc(C(C)(C)O)c2)cc1-c1cc(N2CCOCC2)c(OC2CCOCC2)nn1 [Example 634, 2-(2-hydroxypropan-2-yl)-N-(6-methyl-5-(5-morpholino-6-((tetrahydro-2H-pyran-4-yl)oxy)pyridazin-3-yl)pyridin-3-yl)isonicotinamide]
24.9	Cc1ccc(NC(=O)c2cccc(C(C)(C)S(C)(=O)=O)c2)cc1-c1cc(N2CCOCC2)c(=O)n(C)n1 [Example 637, N-(4-methyl-3-(1-methyl-5-morpholino-6-oxo-1,6-dihydropyridazin-3-yl)phenyl)-3-(2-(methylsulfonyl)propan-2-yl)benzamide]
9.6	Cc1ccc(NC(=O)c2ccnc(C(C)(C)O)c2)cc1-c1cc(N2CCOCC2)c(=O)n(C)n1 [Example 638, 2-(2-hydroxypropan-2-yl)-N-(4-methyl-3-(1-methyl-5-morpholino-6-oxo-1,6-dihydropyridazin-3-yl)phenyl)isonicotinamide]
1.4	CCc1cc(C(=O)Nc2ccc(C)c(-c3cc(N4CCOCC4)c(=O)n(C)n3)c2)ccn1 [Example 642, 2-ethyl-N-(4-methyl-3-(1-methyl-5-morpholino-6-oxo-1,6-dihydropyridazin-3-yl)phenyl)isonicotinamide]
53.4	Cc1ncc(NC(=O)c2ccnc(C(C)(C)C#N)c2)cc1-c1cc(N2CCOCC2)c(=O)n(C)n1 [Example 645, 2-(2-cyanopropan-2-yl)-N-(6-methyl-5-(1-methyl-5-morpholino-6-oxo-1,6-dihydropyridazin-3-yl)pyridin-3-yl)isonicotinamide]
5.3	Cc1ccc(NC(=O)c2cnnc(C(F)(F)F)c2)cc1-c1cc(N2CCOCC2)c(=O)n(C)n1 [Example 647, N-(4-methyl-3-(1-methyl-5-morpholino-6-oxo-1,6-dihydropyridazin-3-yl)phenyl)-6-(trifluoromethyl)pyridazine-4-carboxamide]
4.6	CCN1CCN(c2cc(C(=O)Nc3ccc(C)c(-c4cc(N5CCOCC5)c(=O)n(C)n4)c3)cc(C(F)(F)F)c2)CC1 [Example 649, 3-(4-ethylpiperazin-1-yl)-N-(4-methyl-3-(1-methyl-5-morpholino-6-oxo-1,6-dihydropyridazin-3-yl)phenyl)-5-(trifluoromethyl)benzamide]
6.7	Cc1ccc(NC(=O)c2cccc(CC#N)c2)cc1-c1cc(N2CCOCC2)c(=O)n(C)n1 [Example 652, 3-(cyanomethyl)-N-(4-methyl-3-(1-methyl-5-morpholino-6-oxo-1,6-dihydropyridazin-3-yl)phenyl)benzamide]
1.7	Cc1ccc(NC(=O)c2ccnc(C(C)(C)F)c2)cc1-c1cc(N2CCOCC2)c(=O)n(C)n1 [Example 654, 2-(2-fluoropropan-2-yl)-N-(4-methyl-3-(1-methyl-5-morpholino-6-oxo-1,6-dihydropyridazin-3-yl)phenyl)isonicotinamide]
